Experimental data published in patent publication US20050197371A1, “Urea derivatives as PDGFR modulators” (Ambit Biosciences Corporation, priority 2003, published 2005).

target: T1, PDGFRB(DKIN) (PDGFR-β) (Homo sapiens, UniProt P09619); assay: Phage-display competitive binding assay, PDGFRB(DKIN); conditions: T7 phage displaying human PDGFR-β, DKIN construct; read-out: Binding Assay: PDGFRB(DKIN)
T1 construct: PDGFRB(DKIN)
Experimental: The term “ND” represents non-determined values.
(§1) Briefly, T7 phage displaying human PDGFR-β were incubated with an affinity matrix coated with known PDGFR-β inhibitor in the presence of various concentrations of the soluble competitor molecules.

Row | Structure (SMILES) | Kd
1 | CC(C)(C)c1cc(NC(=O)Nc2ccc(NC(=O)c3ccccn3)cc2)no1 [Compound N188] | < 100 nM
2 | CC(C)(C)c1cc(NC(=O)Nc2ccc(NC(=O)c3cc4cc(Br)ccc4s3)cc2)no1 [Compound N17] | < 100 nM
3 | O=C(Nc1ccc(Cl)cc1)Nc1ccc(-n2nc(Br)c(Br)c2Br)cc1 [Compound Z49] | < 100 nM
4 | COc1cc2ncnc(Nc3ccc(NC(=O)Nc4cc(C(C)(C)C)on4)cc3)c2cc1OC [Compound O5] | < 100 nM
5 | CC(C)(C)c1cc(NC(=O)Nc2ccc(NC(=O)C3CCCCC3)cc2)no1 [Compound N91] | 100 to 1000 nM
6 | C=CCOc1ccc(NC(=O)Nc2cc(C(C)(C)C)no2)cc1 [Compound G32] | < 100 nM
7 | COc1nc(C)cc(C)c1C(=O)Nc1ccc(NC(=O)Nc2cc(C(C)(C)C)on2)cc1 [Compound N22] | 100 to 1000 nM
8 | Cc1[nH]c(C(=O)Nc2ccc(NC(=O)Nc3cc(C(C)(C)C)on3)cc2)c(C)c1CCC(=O)O [Compound N39] | < 100 nM
9 | CC(C)(C)c1cc(NC(=O)Nc2ccc(NC(=O)Cc3ccc(-c4ccccc4)cc3)cc2)no1 [Compound N38] | 100 to 1000 nM
10 | CC(C)(C)c1cc(NC(=O)Nc2ccc(C(=O)NCc3ccccc3)cc2)no1 [Compound N89] | 100 to 1000 nM
11 | CC(C)(C)c1cc(NC(=O)Nc2ccc(NC(=O)Cc3ccccc3)cc2)no1 [Compound N35] | 100 to 1000 nM
12 | O=C(Nc1ccccc1)Nc1ccc(-n2cnc(Cl)c2Cl)cc1 [Compound Z65] | 100 to 1000 nM
13 | CC(C)(C)c1cc(NC(=O)Nc2ccc(NC(=O)Cc3noc4ccccc34)cc2)no1 [Compound N80] | < 100 nM
14 | CC(C)(C)c1cc(NC(=O)Nc2ccc(OCc3ccc(C(F)(F)F)cc3)cc2)no1 [Compound G6] | < 100 nM
15 | CC(C)(C)c1cc(NC(=O)Nc2ccc(NC(=O)c3nccc4ccccc34)cc2)no1 [Compound N117] | < 100 nM
16 | CC(C)(C)c1cc(NC(=O)Nc2ccc(NC(=O)Cc3csc4ccccc34)cc2)no1 [Compound N107] | 1000 to 10000 nM
17 | C/C=C/C(=O)Nc1ccc(NC(=O)Nc2cc(C(C)(C)C)on2)cc1 [Compound N93] | 1000 to 10000 nM
18 | CC(C)(C)c1cc(NC(=O)Nc2ccc(OCc3ccc4nonc4c3)cc2)no1 [Compound G55] | 100 to 1000 nM
19 | CN(C)c1ccc(C(=O)Nc2ccc(NC(=O)Nc3cc(C(C)(C)C)on3)cc2)cn1 [Compound N159] | < 100 nM
20 | CC(C)(C)c1cnc(CSc2cnc(NC(=O)Nc3ccon3)s2)o1 | 1000 to 10000 nM
21 | CC(C)(C)c1cc(NC(=O)Nc2ccc(OCc3ccccc3-c3ccccc3)cc2)no1 [Compound G8] | 100 to 1000 nM

same assay, conditions: read-out: Binding Assay: PDGFRB(DKIN); T7 phage displaying human PDGFR-β, DKIN construct

Row | Structure (SMILES) | Kd
22 | CC(C)(C)c1cc(NC(=O)Nc2ccc(NC(=O)c3ncccc3O)cc2)no1 [Compound N134] | < 100 nM
23 | CC(C)(C)c1cc(NC(=O)Nc2ccc(NC(=O)c3cc4ccccc4cn3)cc2)no1 [Compound N106] | < 100 nM
24 | CC(C)(C)c1cc(NC(=O)Nc2ccc(NC(=O)c3cn4c(n3)sc3ccccc34)cc2)no1 [Compound N73] | < 100 nM

target: T2, PDGFRB(JMplus) (PDGFR-β) (Homo sapiens, UniProt P09619); assay: Phage-display competitive binding assay, PDGFRB(JMplus); conditions: not given
T2 construct: PDGFRB(JMplus)
T2 sequence (P09619 600-962 limits assumed): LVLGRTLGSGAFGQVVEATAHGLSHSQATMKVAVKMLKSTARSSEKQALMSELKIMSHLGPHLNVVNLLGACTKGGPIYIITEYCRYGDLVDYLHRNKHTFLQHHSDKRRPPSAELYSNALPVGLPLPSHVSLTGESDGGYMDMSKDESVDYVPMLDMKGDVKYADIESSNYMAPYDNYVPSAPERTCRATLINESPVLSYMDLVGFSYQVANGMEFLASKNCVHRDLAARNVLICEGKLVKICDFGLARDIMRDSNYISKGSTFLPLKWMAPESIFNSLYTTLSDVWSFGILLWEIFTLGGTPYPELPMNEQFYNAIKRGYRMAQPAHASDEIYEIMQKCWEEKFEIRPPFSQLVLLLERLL
Experimental: as §1

Row | Structure (SMILES) | Kd
25 | CC(C)(C)c1cc(NC(=O)Nc2ccc(NC(=O)c3ncccc3O)cc2)no1 [Compound N134] | < 100 nM

same assay, conditions: T7 phage displaying human PDGFR-β, JMplus construct; read-out: Binding Assay: PDGFRB(JMplus)

Row | Structure (SMILES) | Kd
26 | CC(C)(C)c1cc(NC(=O)Nc2ccc(NC(=O)c3ccccn3)cc2)no1 [Compound N188] | < 100 nM

target: T3, PDGFRB(JMminus) (PDGFR-β) (Homo sapiens, UniProt P09619); assay: Phage-display competitive binding assay, PDGFRB(JMminus); conditions: not given
T3 construct: PDGFRB(JMminus)
T3 sequence (P09619 600-962 limits assumed): as above
Experimental: as §1

Row | Structure (SMILES) | Kd
27 | CC(C)(C)c1cc(NC(=O)Nc2ccc(NC(=O)c3ncccc3O)cc2)no1 [Compound N134] | < 100 nM

same assay, conditions: T7 phage displaying human PDGFR-β, JMminus construct; read-out: Binding Assay: PDGFRB(JMminus)

Row | Structure (SMILES) | Kd
28 | CC(C)(C)c1cc(NC(=O)Nc2ccc(NC(=O)c3ccccn3)cc2)no1 [Compound N188] | < 100 nM
